Experimental data as given in ChEMBL document CHEMBL1201862, “PubChem BioAssay data set” (2004).
Calls of active or inactive are those of the source.

What was measured:
[1] = target: T1, Long-chain-fatty-acid--AMP ligase FadD28 (Mycobacterium tuberculosis, UniProt P9WQ59); assay: Fluorescence polarization aasay to screen for inhibitors that compete for the binding of FadD28 to a bisubstrate Measured in Biochemical System Using Plate Reader - 2147-01_Inhibitor_Dose_CherryPick_Activity.; assay type: functional, Mycobacterium tuberculosis H37Rv
T1 sequence (P9WQ59 whole entry): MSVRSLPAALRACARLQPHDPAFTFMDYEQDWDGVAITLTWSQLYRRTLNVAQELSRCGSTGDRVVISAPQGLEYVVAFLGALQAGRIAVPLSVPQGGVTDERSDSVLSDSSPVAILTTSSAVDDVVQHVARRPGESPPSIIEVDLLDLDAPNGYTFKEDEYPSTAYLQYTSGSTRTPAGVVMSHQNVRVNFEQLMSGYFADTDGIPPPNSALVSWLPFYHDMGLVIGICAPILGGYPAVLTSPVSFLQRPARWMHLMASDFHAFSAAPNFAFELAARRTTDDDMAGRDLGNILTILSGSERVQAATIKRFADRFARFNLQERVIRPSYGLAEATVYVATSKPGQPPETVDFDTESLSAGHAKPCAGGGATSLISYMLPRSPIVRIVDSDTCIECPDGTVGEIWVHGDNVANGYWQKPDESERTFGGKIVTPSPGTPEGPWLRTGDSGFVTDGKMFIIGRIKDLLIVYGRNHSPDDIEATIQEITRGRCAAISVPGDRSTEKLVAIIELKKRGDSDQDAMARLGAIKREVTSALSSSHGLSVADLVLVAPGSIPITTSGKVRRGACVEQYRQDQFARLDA

[2] = target: T2, Nuclear receptor subfamily 0 group B member 1 (Homo sapiens, UniProt P51843); assay type: functional, cell-based;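 further: HEK293T cells transfected with SF-1 and DAX-1 plus StAR promoter luciferase reporter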
T2 sequence (P51843 whole entry): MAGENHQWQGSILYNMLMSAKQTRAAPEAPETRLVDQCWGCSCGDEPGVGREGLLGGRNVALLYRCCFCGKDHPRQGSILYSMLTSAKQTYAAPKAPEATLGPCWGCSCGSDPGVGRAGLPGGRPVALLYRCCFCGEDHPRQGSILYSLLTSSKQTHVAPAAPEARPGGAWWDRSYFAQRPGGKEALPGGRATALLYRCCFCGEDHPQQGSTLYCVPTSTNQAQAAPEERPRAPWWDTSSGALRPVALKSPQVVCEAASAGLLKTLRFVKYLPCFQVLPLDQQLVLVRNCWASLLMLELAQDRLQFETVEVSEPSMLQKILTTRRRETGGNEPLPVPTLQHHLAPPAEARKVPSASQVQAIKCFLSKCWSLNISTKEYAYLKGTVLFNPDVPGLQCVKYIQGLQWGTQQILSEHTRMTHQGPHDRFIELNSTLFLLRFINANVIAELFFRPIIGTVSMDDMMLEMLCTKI

[3] = cells; assay type: functional, cell-based
[4] = target: 5-hydroxytryptamine receptor 2A (Mus musculus, UniProt P35363); assay type: functional, cell-based;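 further: CHO-K1 cells with tagged receptor and beta-arrestin; agonist potency measured as compound-induced activation of the receptor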
5-hydroxytryptamine receptor 2A, sequence (P35363 whole entry): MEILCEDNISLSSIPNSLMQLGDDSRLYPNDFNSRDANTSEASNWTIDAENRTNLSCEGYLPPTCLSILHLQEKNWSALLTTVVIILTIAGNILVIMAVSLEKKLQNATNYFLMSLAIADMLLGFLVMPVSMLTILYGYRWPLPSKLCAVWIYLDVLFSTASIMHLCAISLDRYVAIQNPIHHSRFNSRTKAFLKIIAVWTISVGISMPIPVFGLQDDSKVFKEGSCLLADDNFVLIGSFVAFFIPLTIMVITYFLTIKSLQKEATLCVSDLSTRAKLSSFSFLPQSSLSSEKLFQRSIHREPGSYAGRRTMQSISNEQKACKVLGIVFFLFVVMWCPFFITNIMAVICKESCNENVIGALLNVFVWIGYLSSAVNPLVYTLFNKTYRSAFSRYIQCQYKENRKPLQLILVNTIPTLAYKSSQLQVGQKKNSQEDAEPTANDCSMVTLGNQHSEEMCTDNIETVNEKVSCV

[5] = target: Mu-type opioid receptor (Homo sapiens, UniProt P35372); assay type: functional, cell-based;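 further: U2OS cells with beta-arrestin recruitment to OPRM1 by beta-gal complementation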
Mu-type opioid receptor, sequence (P35372 whole entry, the tested form may be a part): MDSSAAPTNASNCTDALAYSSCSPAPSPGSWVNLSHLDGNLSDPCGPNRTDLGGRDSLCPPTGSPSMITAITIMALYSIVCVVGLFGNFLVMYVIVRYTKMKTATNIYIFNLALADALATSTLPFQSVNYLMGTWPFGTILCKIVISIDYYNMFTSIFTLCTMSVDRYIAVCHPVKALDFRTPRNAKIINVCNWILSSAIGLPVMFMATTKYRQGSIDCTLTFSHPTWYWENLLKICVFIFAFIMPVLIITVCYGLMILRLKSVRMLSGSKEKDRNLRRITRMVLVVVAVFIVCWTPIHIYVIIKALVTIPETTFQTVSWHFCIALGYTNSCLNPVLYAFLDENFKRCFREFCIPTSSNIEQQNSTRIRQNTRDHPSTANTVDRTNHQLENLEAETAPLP

[6] = blockers of HIV-1 envelope-mediated cell-cell fusion – cherry-pick, dose response (AID 652057); assay type: functional, cell-based
[7] = HIV-1 AD8 envelope cell-cell fusion blockers – cherry-pick, dose response (AID 652062); assay type: functional, cell-based;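 further: luciferase signal from cell-cell fusion driven by HIV-1 clade B AD8 Env; potency is for inhibitors of fusion seen as a drop in luminescence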
[8] = viability loss in CEM21 cells – cell-based, CellTiter-Glo luminescence, cherry-picked, cytotoxicity control for viral fusion inhibitor project, dose response (AID 652042); assay type: functional;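 further: potency for signal decrease meaning cytotoxicity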
[9] = target: T3, Protein skinhead-1 (Caenorhabditis elegans, UniProt P34707); assay type: functional
T3 sequence (P34707 whole entry): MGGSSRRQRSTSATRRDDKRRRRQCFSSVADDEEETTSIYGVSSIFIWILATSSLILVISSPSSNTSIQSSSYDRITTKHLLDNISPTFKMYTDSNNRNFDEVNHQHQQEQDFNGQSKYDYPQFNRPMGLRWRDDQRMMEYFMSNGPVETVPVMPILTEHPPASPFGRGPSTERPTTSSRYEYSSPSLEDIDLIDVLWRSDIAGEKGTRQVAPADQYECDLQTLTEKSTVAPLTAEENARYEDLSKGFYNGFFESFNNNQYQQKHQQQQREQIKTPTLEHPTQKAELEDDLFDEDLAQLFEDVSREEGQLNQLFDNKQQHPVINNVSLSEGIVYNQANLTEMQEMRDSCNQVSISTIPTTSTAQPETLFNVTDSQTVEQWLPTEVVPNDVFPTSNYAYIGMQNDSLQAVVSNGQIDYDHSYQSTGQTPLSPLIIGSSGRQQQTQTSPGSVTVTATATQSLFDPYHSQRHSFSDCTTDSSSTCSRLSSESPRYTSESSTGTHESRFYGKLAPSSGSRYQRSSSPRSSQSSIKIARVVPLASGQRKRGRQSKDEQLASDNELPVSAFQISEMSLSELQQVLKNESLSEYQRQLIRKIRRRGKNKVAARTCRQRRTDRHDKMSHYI

[10] = system: HT-1080; assay: HT1080 cell viability loss – fluorescence readout (AID 620); assay type: functional, cell-based; conditions: Homo sapiens
[11] = target: Luciferin 4-monooxygenase (Photinus pyralis, UniProt P08659); assay: Counter Screen for Luciferase-based Assay Positives. [Related pubchem assays: 620, 618, 411 ]
Luciferin 4-monooxygenase, sequence (P08659 whole entry): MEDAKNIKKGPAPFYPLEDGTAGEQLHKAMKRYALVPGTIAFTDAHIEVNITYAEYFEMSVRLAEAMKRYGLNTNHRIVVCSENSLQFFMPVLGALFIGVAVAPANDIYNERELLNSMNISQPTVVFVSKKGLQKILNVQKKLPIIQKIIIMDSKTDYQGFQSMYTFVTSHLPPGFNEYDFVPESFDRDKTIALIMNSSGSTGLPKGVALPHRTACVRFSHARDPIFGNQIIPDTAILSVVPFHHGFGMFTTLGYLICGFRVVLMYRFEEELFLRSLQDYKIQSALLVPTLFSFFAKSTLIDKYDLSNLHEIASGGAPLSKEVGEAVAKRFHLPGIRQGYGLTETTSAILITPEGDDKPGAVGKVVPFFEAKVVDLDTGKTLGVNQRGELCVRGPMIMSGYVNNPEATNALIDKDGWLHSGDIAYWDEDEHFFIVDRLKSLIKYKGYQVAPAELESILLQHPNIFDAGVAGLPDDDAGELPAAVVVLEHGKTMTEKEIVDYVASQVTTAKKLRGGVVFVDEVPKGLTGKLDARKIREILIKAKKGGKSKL

[12] = Luminescence Cell-Based Dose Response HTS to Identify Inhibitors of 5'UTR Stem-Loop Driven Prion Protein mRNA Translation in H4 Neuroglioblastoma Cells. [Related pubchem assays: 1827 (Project Summary), 1813 (Primary HTS)]; assay type: functional
[13] = blockers of HIV-1 ZM109 envelope-driven cell-cell fusion – HeLa effector, CEM target cells, luciferase, cherry-pick, dose response (AID 652058); assay type: functional, cell-based;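 further: luciferase signal from HIV-1 Env mediated cell-cell fusion of effector and target cells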
[14] = target: T4, Small ubiquitin-related modifier 1 (Homo sapiens, UniProt P63165); assay: SUMO1 protein-protein binding blockers, potency – biochemical, FRET, dose response (AID 624383); assay type: functional; conditions: read-out: IC50_Mean
T4 sequence (P63165 whole entry): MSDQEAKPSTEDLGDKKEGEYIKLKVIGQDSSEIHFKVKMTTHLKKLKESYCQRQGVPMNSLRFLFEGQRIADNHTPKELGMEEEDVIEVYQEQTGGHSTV

[15] = target: T5, Histone-lysine N-methyltransferase NSD2 (Homo sapiens, UniProt O96028); assay type: biochemical
T5 sequence (O96028 whole entry): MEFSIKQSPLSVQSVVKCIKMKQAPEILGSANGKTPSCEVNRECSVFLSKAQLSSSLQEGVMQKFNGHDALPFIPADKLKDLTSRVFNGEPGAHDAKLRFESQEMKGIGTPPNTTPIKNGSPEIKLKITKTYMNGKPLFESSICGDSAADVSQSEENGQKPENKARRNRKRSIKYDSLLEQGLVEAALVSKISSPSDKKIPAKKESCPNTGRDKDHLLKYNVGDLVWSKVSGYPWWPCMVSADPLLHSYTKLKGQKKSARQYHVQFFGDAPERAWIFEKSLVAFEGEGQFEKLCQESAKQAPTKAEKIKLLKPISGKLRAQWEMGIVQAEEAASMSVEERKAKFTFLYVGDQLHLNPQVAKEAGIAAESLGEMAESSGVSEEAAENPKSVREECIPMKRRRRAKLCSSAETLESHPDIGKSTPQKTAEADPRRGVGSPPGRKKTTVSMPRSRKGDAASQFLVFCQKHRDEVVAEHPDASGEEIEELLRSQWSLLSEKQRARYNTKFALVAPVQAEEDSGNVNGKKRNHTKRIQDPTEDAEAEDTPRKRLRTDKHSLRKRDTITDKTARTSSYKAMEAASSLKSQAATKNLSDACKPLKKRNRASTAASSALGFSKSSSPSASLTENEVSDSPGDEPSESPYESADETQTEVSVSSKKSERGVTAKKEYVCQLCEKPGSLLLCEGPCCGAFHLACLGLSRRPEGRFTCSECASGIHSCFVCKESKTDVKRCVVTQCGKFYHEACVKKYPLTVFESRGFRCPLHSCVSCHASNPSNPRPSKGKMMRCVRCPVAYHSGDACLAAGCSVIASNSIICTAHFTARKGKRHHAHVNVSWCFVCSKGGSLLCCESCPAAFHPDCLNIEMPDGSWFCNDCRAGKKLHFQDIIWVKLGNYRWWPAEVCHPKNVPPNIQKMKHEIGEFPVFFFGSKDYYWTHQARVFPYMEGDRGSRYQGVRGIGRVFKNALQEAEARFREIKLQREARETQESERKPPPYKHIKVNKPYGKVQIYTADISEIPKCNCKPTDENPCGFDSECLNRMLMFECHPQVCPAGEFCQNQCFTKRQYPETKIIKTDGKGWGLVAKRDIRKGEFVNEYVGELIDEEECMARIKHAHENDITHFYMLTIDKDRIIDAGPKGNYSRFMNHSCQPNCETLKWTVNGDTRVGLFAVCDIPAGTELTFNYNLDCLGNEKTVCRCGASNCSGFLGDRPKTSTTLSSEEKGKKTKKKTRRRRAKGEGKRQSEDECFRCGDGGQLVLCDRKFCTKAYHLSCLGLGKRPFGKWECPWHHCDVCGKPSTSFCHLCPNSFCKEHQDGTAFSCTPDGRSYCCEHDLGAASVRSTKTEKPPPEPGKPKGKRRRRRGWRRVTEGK

[16] = target: Induced myeloid leukemia cell differentiation protein Mcl-1 (Homo sapiens, UniProt Q07820); assay type: functional
Induced myeloid leukemia cell differentiation protein Mcl-1, sequence (Q07820 whole entry, the tested form may be a part): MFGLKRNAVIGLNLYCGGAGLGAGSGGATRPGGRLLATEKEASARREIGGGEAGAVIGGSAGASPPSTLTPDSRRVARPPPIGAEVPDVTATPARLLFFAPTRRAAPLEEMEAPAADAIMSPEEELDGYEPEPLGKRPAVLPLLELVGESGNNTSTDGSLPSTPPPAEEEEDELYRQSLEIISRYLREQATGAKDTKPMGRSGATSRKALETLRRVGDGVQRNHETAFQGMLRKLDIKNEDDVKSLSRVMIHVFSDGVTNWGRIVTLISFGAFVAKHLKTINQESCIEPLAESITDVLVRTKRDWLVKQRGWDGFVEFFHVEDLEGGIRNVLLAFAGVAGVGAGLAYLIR

[17] = target: T6, RNA-binding protein pos-1 (Caenorhabditis elegans, UniProt G5EF15); assay: disruptors of C. elegans POS-1 RNA interaction – biochemical, fluorescence polarization, dose response (AID 1964);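 further: purified POS-1 fused to maltose binding protein made in E. coli; potency of compounds blocking POS-1 binding to fluorescent RNA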
T6 sequence (G5EF15 whole entry): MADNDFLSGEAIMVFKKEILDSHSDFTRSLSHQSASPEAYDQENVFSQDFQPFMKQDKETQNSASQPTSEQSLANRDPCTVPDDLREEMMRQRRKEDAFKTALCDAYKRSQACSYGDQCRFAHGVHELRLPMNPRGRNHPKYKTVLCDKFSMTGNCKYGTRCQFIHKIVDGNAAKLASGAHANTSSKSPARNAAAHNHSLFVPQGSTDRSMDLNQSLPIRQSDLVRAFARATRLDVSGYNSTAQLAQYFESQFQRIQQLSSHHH

[18] = target: DNA (cytosine-5)-methyltransferase 1 (Homo sapiens, UniProt P26358); assay: inhibition of DNA methylation by DNMT1 – biochemical, fluorescent molecular beacon, confirmation (AID 602386); assay type: functional
DNA (cytosine-5)-methyltransferase 1, sequence (P26358 whole entry): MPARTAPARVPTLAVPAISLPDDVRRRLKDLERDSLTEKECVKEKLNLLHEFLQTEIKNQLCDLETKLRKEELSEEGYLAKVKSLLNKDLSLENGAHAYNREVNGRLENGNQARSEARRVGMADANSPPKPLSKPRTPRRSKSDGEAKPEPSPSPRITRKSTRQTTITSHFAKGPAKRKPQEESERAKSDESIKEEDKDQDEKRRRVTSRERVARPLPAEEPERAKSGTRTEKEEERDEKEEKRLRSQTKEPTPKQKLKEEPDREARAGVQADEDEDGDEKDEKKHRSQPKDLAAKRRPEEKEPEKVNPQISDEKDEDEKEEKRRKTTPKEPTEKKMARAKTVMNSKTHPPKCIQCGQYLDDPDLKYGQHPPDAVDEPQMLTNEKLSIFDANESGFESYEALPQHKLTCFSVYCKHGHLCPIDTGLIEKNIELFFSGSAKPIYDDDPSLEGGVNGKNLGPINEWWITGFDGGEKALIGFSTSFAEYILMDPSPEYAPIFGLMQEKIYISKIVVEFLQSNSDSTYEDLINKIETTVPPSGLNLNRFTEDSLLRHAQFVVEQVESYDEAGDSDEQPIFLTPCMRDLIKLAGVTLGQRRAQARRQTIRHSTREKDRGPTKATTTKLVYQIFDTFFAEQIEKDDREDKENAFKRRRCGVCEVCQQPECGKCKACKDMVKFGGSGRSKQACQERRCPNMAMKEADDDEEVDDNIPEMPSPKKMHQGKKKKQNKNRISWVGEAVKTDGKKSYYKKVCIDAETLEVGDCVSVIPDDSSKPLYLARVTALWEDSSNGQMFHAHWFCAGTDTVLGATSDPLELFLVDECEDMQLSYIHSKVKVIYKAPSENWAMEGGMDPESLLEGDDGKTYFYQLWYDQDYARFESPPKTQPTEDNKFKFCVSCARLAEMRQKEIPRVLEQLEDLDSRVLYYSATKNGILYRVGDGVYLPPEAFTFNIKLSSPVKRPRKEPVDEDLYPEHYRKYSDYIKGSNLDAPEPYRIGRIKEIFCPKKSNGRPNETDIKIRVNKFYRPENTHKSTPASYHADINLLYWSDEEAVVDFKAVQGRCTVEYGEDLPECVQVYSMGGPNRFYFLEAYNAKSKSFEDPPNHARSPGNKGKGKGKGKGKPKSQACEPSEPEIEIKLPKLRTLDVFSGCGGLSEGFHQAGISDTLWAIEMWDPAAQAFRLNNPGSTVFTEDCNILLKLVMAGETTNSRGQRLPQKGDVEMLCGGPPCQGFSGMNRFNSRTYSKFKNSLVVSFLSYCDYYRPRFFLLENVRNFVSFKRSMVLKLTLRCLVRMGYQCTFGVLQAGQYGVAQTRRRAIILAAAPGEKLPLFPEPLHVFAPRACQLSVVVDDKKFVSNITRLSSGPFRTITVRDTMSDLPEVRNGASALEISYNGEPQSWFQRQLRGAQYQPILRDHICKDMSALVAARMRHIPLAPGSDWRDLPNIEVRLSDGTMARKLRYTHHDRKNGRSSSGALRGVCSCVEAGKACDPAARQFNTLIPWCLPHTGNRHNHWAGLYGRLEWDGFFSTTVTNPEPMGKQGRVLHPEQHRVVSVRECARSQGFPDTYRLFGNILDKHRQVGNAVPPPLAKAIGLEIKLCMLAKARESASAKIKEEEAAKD

[19] = target: Large T antigen (Simian virus 40, UniProt P03070); assay type: functional, Betapolyomavirus macacae;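 further: Confirmatory-stage PubChem screen for compounds that inhibit SV40 T antigen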
Large T antigen, sequence (P03070 whole entry): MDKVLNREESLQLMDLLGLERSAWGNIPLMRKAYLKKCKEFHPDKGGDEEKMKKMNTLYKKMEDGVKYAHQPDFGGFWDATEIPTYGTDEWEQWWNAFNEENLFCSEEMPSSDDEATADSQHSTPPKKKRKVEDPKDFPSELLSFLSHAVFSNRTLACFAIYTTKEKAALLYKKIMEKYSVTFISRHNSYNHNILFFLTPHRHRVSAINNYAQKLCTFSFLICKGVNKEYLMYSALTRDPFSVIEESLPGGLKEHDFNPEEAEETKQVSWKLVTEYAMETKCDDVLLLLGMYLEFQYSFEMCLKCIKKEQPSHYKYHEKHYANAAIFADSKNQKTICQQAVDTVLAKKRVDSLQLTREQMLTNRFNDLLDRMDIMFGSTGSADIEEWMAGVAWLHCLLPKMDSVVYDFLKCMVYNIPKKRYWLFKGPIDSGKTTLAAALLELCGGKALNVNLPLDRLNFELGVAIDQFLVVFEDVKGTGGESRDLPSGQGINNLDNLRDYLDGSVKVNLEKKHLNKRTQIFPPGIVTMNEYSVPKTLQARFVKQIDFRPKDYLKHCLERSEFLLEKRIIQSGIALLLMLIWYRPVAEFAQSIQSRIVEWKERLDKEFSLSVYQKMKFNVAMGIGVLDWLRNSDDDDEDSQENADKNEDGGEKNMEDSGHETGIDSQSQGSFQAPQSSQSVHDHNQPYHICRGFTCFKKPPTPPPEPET

[20] = target: T4, Small ubiquitin-related modifier 1; assay: SUMO1 protein interaction blockers, potency – biochemical, fluorescence polarization, uHTS hits, dose response (AID 624382); assay type: functional; conditions: read-out: IC50_Mean
[21] = target: T7, Zinc finger protein mex-5 (Caenorhabditis elegans, UniProt Q9XUB2); assay: potency of MEX-5 RNA-binding blockers – biochemical, C. elegans, fluorescence polarization, dose response (AID 1960)
T7 sequence (Q9XUB2 whole entry): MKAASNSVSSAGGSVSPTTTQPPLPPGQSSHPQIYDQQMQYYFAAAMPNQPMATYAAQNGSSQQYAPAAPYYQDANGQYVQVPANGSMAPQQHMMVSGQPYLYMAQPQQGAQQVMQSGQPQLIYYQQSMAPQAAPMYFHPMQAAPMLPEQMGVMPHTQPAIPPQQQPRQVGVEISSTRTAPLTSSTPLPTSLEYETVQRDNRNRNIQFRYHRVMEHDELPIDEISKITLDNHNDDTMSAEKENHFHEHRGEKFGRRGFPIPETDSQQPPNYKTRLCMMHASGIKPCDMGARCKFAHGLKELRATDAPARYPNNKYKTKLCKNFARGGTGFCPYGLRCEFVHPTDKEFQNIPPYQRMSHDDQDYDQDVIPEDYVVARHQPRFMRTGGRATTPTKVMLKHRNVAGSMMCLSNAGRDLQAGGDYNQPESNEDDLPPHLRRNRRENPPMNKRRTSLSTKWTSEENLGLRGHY

## CCc1cccc2c(C(=O)CN3C(=O)NC4(CCc5ccccc54)C3=O)c[nH]c12 (centres undefined)
[1]
  AC50: 29.2 µM (active)
[2]
  IC50: > 67.5 µM (inactive)
[3]
  IC50: > 67.5 µM (inactive)

## CC(=O)NCC1(c2ccccc2)CCN(CC2COc3ccccc3O2)CC1 (centres undefined) [ACOXATRINE]
[4]
  EC50: 76.2 µM (inactive)
[5]
  EC50: 92.6 µM (inactive)

## COc1cccc(CNc2nc(NCc3ccccc3OC)nc3ccsc23)c1
[6]
  AC50: 31.9 µM (active)
[7]
  AC50: 16.8 µM (active)
[8]
  AC50: 68.5 µM (active)
[9]
  IC50: > 100 µM (inactive)

## O=C(COC(=O)c1ccc(O)cc1O)c1ccc(Cl)cc1
[2]
  IC50: > 67.5 µM (inactive)
[3]
  IC50: > 67.5 µM (inactive)

## CSCCC(=O)N1CC[C@@H](N2CCN(c3ccccc3F)CC2)[C@H](O)C1
[4]
  EC50: 41.7 µM (inactive)
[5]
  EC50: 92.5 µM (inactive)

## O=C(/C=C\Nc1ccccn1)c1ccccc1
[2]
  IC50: > 67.5 µM (inactive)
[10]
  EC50: > 50 µM (not active)
[11]
  EC50: < 0.2 µM (active)
[12]
  EC50: 10.7 µM (inconclusive)
[9]
  IC50: 15.1 µM (active)
[3]
  IC50: > 67.5 µM (inactive)

## CCOC(=O)N1CCN(Cc2ccc(OCC(O)CN3CCCCC3)cc2)CC1 (centres undefined)
[4]
  EC50: 2.22 µM (active)
[5]
  EC50: 92.5 µM (inactive)

## CC[C@@H](C)[C@H](C(CC(=O)N1CCCC1[C@@H](OC)[C@H](C)C(=O)N[C@H](Cc1ccccc1)c1nccs1)OC)N(C)C(=O)[C@H](NC(=O)[C@@H](C(C)C)N(C)C)C(C)C (some centres undefined)
[2]
  IC50: > 67.5 µM (inactive)
[3]
  IC50: > 67.5 µM (inactive)

## CCC1CS/C(=N\c2ccc(C)cc2)N1C(=O)CN1C(=O)NC2(CCCC2)C1=O (centres undefined)
[2]
  IC50: > 67.6 µM (inactive)
[3]
  IC50: > 67.6 µM (inactive)

## c1cnc(N2CCN(Cc3ccc4c(c3)OCO4)CC2)nc1
[4]
  EC50: 0.00986 µM (active)
[5]
  EC50: 92.5 µM (inactive)

## O=C(Nc1ccc(Cl)c(Cl)c1)N[C@H]1CC[C@H](CCn2cc(C3CCCCC3)nn2)O[C@@H]1CO
[6]
  AC50: 18.9 µM (active)
[7]
  AC50: 43.9 µM (active)
[8]
  AC50: 61 µM (active)
[13]
  AC50: 16.8 µM (active)

## O=C(O)c1ccc(-n2cccc2/C=C2/NC(=O)N(c3ccccc3)C2=O)cc1
[14]
  IC50: 9.62 µM (active)
[15]
  AC50: 5.87 µM (active)
[16]
  IC50: 3.51 µM (active)
[17]
  EC50: > 300 µM (not active)
[18]
  IC50: 3.83 µM (active)
[19]
  IC50: > 100 µM (active)
[20]
  IC50: > 66.6 µM (inactive)
[21]
  EC50: 71.1 µM (active)
